Here are results for one substance from US8765688B2, “Anti-dandruff compositions containing peptides” (priority 2007, dated 2014).

What all share (assay type): cell-based
The test system of data set [1] is Malassezia furfur. In words: Long-term stability of P18 (12 weeks at 37° C.) tested on Malassezia furfur, CFU. The conditions noted are these: for colony-forming units: mean ± SD. As for the experimental part:
Since storage over longer time periods may be necessary, in the following a 1 mM P18 peptide solution (P18 sequence H-KWKLFKKIPKFLHLAKKF-NH2; SEQ ID NO: 3) was stored for 12 weeks at 37° C. and the antifungal activity of the stored solution on Malassezia furfur was compared to the activity of a freshly prepared 1 mM P18 peptide solution. This was done through a growth test, which was carried out as follows:
Growth medium: M472-Pityrosporum medium according to DSMZ
The components were sterilized at 121° C., 1 bar superatmospheric pressure for 20 minutes.
2 g/L of olive oil (sterilized by filtration and, after autoclaving, added to the other components)
Since it was a two-phase medium, the complete medium was treated with sonication in order to enlarge the phase boundary.
For agar plates, if appropriate, 150 g/L of agar agar were added to the medium.
The growth test was carried out as follows: A shake flask with M472-Pityrosporum medium was inoculated with M. furfur and incubated with shaking overnight at 30° C. and 200 rpm.
A 96-well microtiter plate was filled with in each case 100 μl of M472-Pityrosporum medium and inoculated with M. furfur suspension of the overnight culture. The M. furfur suspension was adjusted at the start of the experiment to an optical density, measured at 600 nm, of 0.02. The concentrates of the inhibitor solutions were 1 mM in water.
The growth of the following batches was compared:
M. furfur suspension without the addition of an inhibitor.
M. furfur suspension and addition of a fresh aqueous P18 solution with a final concentration of 50 μM.
M. furfur suspension and addition of a fresh aqueous P18 solution with a final concentration of 25 μM.
M. furfur suspension and addition of a P18 solution that had been stored at 37° C. for 12 weeks, with a final concentration of 50 μM.
M. furfur suspension and addition of a P18 solution that had been stored at 37° C. for 12 weeks, with a final concentration of 25 μM.
The microtiter plate was incubated with shaking at 30° C.
The growth was observed over 24 hours by measuring the optical density. The colony-forming units (CFU) were then determined by plating out 1 μl and 5 μl from each of the suspensions and, after incubation for 6 days, counting the colonies. The CFU was determined in order to exclude an influence of the two-phase medium and also the growth form of M. furfur on the optical density. The experiments were carried out at least in triple determinations.

The subject of data set [2] is Malassezia furfur. In words: Kinetics of the effect of P18 on M. furfur in the presence of a shampoo basic formulation, CFU. The settings on record: 2.3-0.23 g/l, 5 min to 24 hours, 10% (v/v) formulation 31-3. As for the experimental part:
The effect of the peptide […]; carboxy-terminal end amidated; […] The experiments were carried out as follows: The following shampoo basic formulation was prepared: The components Texapon NSO and Tego Betain L7 were mixed and dissolved. The pH was adjusted to pH 6-7 with NaOH. The effect of P18, ZPT and Climbazole against M. furfur was analyzed as follows: Growth medium: […]-Pityrosporum medium according to DSMZ 40 g/L malt extract 20 g/L ox bile 10 g/L Tween 40 The components were sterilized at 121° C., 1 bar superatmospheric pressure for 20 minutes. 2 g/L of olive oil (sterilized by filtration and, after autoclaving, added to the other components) Since it was a two-phase medium, the complete medium was treated with sonication in order to enlarge the phase boundary. For agar plates, if appropriate, […] of agar agar were added to the medium. The growth test was carried out as follows: […]. furfur and incubated with shaking overnight at 30° C. and 200 rpm. A 96-well microtiter plate was filled with in each case 100 μl of […]. furfur suspension of the overnight culture. […] The peptide P18 was dissolved in water with a concentration of 230 g/l. […] The microtiter plate was incubated with shaking at 30° C.

In data set [3] the test system is Escherichia coli. Nature of the data set: Long-term stability of P18 (2 weeks at 37° C.), detected through inhibition of the growth of Escherichia coli. The conditions noted are these: for optical density at 620 nm: 25 μM. As for the experimental part: The long-term stability of P18 was observed over a period of 2 weeks. For this, a 1 mM P18 solution in water was incubated at 37° C. over the entire period. At the start of the experiment and then on these two weeks, the antimicrobial activity was detected through inhibition of the growth of Escherichia coli. The growth medium used here was LB medium as complex medium. The medium comprised 10 g of trypton, 5 g of yeast extract and 10 g of NaCl per liter.
The growth test was carried out as follows: A shake flask of LB medium was inoculated with Escherichia coli and incubated overnight with shaking at 37° C. and 200 rpm. A 96-well microtiter plate was filled with in each case 100 μl of LB medium and inoculated with E. coli suspension of the overnight culture. The E. coli suspension was adjusted at the start of the experiment to an optical density, measured at 620 nm, of about 0.02. The concentrates of the P18 inhibitor solutions were 1 mM in water.
The growth of the following mixtures was compared by measuring the optical density:
E. coli suspension without the addition of an inhibitor.
E. coli suspension and addition of an aqueous P18 solution with a final concentration of 25 μM. The aqueous P18 solution had been freshly prepared.
E. coli suspension and addition of an aqueous P18 solution with a final concentration of 25 μM. The aqueous stock solution had been incubated for 2 weeks at 37° C.
The growth was observed over a period of 40 hours by measuring the optical density.

Ends that are not written are not given here.

Turning to “KWKLFKKIPKFLHLAKKF-NH2 [P18, KWKLFKKIPKFLHLAKKF-NH2]”, in data set [1] (1 mM solution stored for 12 weeks at 37° C.), the “influence of storage on the activity of the P18 peptide solution” value is recorded as “has not influenced the activity”. Also, the colony-forming units in data set [1] (aqueous P18 solution stored 12 weeks at 37° C., 25 μM final conc., incubation time 16-18 h) was 6 ± 7; in data set [1] (aqueous P18 solution stored 12 weeks at 37° C., 25 μM final conc., incubation time 24 h) it was 5 ± 5; in data set [1] (aqueous P18 solution stored 12 weeks at 37° C., 50 μM final conc., incubation time 16-18 h), 0 ± 0; in data set [1] (aqueous P18 solution stored 12 weeks at 37° C., 50 μM final conc., incubation time 24 h), 1 ± 1; in data set [1] (fresh aqueous P18 solution, 25 μM final conc., incubation time 16-18 h) it was 5 ± 8; in data set [1] (fresh aqueous P18 solution, 25 μM final conc., incubation time 24 h) it was 1 ± 2. Besides, the colony-forming units was found to be 0 ± 0 in data set [1] (fresh aqueous P18 solution, 50 μM final conc., incubation time 16-18 h) and 1 ± 1 in data set [1] (fresh aqueous P18 solution, 50 μM final conc., incubation time 24 h). Further, the “effect on M. furfur in the presence of shampoo basic formulation (in words)” value in data set [2] is “superior characteristics as compared to Zincpyrithione or Climbazole”. Also, in data set [3] (1 mM solution in water, 2 weeks at 37° C.), the “antimicrobial activity after storage (long-term stability)” value is “unchanged”. Moreover, the “optical density at 620 nm” value in data set [3] (fresh aqueous P18 solution, incubation time 0 h) was determined as 0.098; in data set [3] (fresh aqueous P18 solution, incubation time 16 h) it was 0; in data set [3] (fresh aqueous P18 solution, incubation time 24 h), 0; in data set [3] (fresh aqueous P18 solution, incubation time 40 h) it was 0; in data set [3] (stored aqueous P18 solution (2 weeks at 37° C.), incubation time 0 h), 0.081; in data set [3] (stored aqueous P18 solution (2 weeks at 37° C.), incubation time 16 h), 0. Also, the “optical density at 620 nm” value came to 0 in data set [3] (stored aqueous P18 solution (2 weeks at 37° C.), incubation time 24 h) and 0 in data set [3] (stored aqueous P18 solution (2 weeks at 37° C.), incubation time 40 h).
